ChEMBL document CHEMBL3875190, “MARK inhibitors: Declaring a No-Go decision on a chemical series based on extensive DMPK experimentation” (Bioorg Med Chem Lett, 2017)
pIC50: −log10 of the molar value.

Key:
[1] = Drug metabolism in rat liver microsomes assessed as oxidative metabolite formation; assay type: ADME
[2] = Drug metabolism in rat liver microsomes assessed as lactam hydrolysis; assay type: ADME
[3] = Drug metabolism in human liver microsomes assessed as oxidative metabolite formation; assay type: ADME
[4] = Drug metabolism in human liver microsomes assessed as lactam hydrolysis; assay type: ADME
[5] = Drug metabolism in rat hepatocytes assessed as oxidation; assay type: ADME, cell-based, Hepatocyte
[6] = Drug metabolism in rat hepatocytes assessed as glucuronidation; assay type: ADME, cell-based, Hepatocyte
[7] = Total plasma clearance in rat; assay type: ADME, cell-free
[8] = Partition coefficient, logD of compound at pH 7 by HPLC analysis; assay type: physicochemical; settings: octanol/water
[9] = Volume of distribution in rat; assay type: ADME; settings: in vivo
[10] = target: MAP/microtubule affinity-regulating kinase 3 (Homo sapiens, UniProt P27448); test: Inhibition of MARK3 (unknown origin)
Chain of MAP/microtubule affinity-regulating kinase 3 (P27448 whole entry): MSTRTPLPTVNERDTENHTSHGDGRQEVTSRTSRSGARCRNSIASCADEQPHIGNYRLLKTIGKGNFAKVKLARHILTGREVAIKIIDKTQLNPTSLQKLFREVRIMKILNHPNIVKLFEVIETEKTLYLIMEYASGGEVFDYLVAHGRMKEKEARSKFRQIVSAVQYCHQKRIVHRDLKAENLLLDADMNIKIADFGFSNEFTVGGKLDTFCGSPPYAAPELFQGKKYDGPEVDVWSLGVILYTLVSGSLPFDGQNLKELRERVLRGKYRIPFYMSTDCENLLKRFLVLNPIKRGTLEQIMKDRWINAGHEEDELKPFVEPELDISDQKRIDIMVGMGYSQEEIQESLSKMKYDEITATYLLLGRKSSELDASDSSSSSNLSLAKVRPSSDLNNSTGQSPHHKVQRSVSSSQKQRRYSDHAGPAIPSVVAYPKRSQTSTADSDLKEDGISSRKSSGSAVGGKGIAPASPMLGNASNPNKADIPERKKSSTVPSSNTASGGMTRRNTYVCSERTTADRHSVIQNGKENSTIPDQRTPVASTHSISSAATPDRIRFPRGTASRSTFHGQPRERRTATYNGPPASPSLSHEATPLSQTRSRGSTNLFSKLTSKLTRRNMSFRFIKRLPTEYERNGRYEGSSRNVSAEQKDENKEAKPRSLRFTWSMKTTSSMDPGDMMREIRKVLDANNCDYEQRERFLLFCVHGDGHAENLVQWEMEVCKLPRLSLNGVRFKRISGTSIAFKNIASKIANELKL

[11] = Half life in rat liver microsomes; assay type: ADME
[12] = Half life in human liver microsomes; assay type: ADME
[13] = Half life in dog liver microsomes; assay type: ADME, Canis lupus familiaris
[14] = Total plasma clearance in dog; assay type: ADME, cell-free, Canis lupus familiaris
[15] = Drug excretion in bile duct-cannulated rat urine after 8 hrs by chromatographic analysis; assay type: ADME; settings: read-out: Drug excretion
[16] = Drug excretion in bile duct-cannulated rat bile after 8 hrs by chromatographic analysis; assay type: ADME, tissue-based; settings: read-out: Drug excretion
[17] = Drug recovery in bile duct-cannulated rat urine after 8 hrs by chromatographic analysis; assay type: ADME; settings: read-out: Drug recovery
[18] = Drug recovery in bile duct-cannulated rat bile after 8 hrs by chromatographic analysis; assay type: ADME, tissue-based; settings: read-out: Drug recovery
[19] = Stability in rat liver cytosol; assay type: ADME
[20] = Stability in human liver cytosol; assay type: ADME

Row | Structure (SMILES) | clearance [7] | logD [8] | Vd [9] | pIC50 [10] | half-life [11] | further results
1 | CC1(C)C(=O)N(C2CCCCC2)c2nc(Nc3cccc(CN4CCOCC4)c3)ncc21 |  |  |  |  |  | Drug metabolism [1]: Metabolite_Detected; Drug metabolism [2]: Metabolite_Detected; Drug metabolism [3]: Metabolite_Detected; Drug metabolism [4]: Metabolite_Detected
2 | CC1(C)C(=O)N([C@H]2CCc3c(O)cccc32)c2nc(Nc3ccccc3)ncc21 |  |  |  |  |  | Drug metabolism [5]: Metabolite_Detected; Drug metabolism [6]: Metabolite_Detected
3 | CC(=O)N1CCC(N2C(=O)C(C)(C)c3cnc(Nc4cccnc4)nc32)CC1 | 11 mL/min/kg | 1.18 | 1.4 L/kg | 5.68 | > 60 min | half-life [12]: > 60 min
4 | C[C@@H](c1ccc(F)cc1)N1C(=O)C(C)(C)c2cnc(Nc3cccnc3)nc21 | 154 mL/min/kg | 2.81 | 6.8 L/kg |  |  | 
5 | CC1(C)C(=O)N(C2CCCCC2)c2nc(Nc3cccnc3)ncc21 | 47 mL/min/kg | 2.82 | 2.8 L/kg |  |  | 
6 | CC(=O)N1CCC(N2C(=O)C(C)(C)c3cnc(Nc4ccccc4)nc32)CC1 | 37 mL/min/kg | 1.6 | 1.1 L/kg |  | 38 min | half-life [12]: 30 min
7 | CC[C@H](C)N1C(=O)C2(CC2)c2cnc(Nc3cccnc3)nc21 | 81 mL/min/kg | 2.3 | 2.9 L/kg | 7.22 | 25 min | Drug metabolism [5]: Metabolite_Detected
8 | CC[C@H](C)N1C(=O)C(C)(C)c2cnc(Nc3ccc(CNC4CCCOC4)cc3)nc21 (stereo partly specified) | 188 mL/min/kg | 2.79 | 96 L/kg |  |  | 
9 | CC(=O)N1CCC(N2C(=O)C(C)(C)c3cnc(Nc4ccc(F)cc4)nc32)CC1 | 37 mL/min/kg | 2.5 | 1.6 L/kg | 5.55 | > 60 min | half-life [12]: 51 min
10 | [3H]c1nc(Nc2cccnc2)nc2c1C(C)(C)C(=O)N2[C@H](C)CC |  |  |  |  |  | dose excreted at 8 h [15]: > 95%; dose excreted at 8 h [16]: > 95%; dose excreted at 8 h [17]: 60 to 90%; dose excreted at 8 h [18]: 60 to 90%; Stability [19]: Stable; Stability [20]: Stable

Second part, led by results:

Row | clearance [7] | logD [8] | Vd [9] | pIC50 [10] | Structure (SMILES) | half-life [11] | further results
11 | 65 mL/min/kg | 2.54 | 35 L/kg |  | CC[C@H](C)N1C(=O)C(C)(C)c2cnc(Nc3ccc(CN4CCN(C)CC4)cc3)nc21 |  | 
12 | 135 mL/min/kg | 2.68 | 3 L/kg |  | CC[C@H](C)N1C(=O)C(C)(C)c2cnc(Nc3ccc(CN4CCC(=O)N(C)CC4)cc3)nc21 |  | 
13 | 269 mL/min/kg | 3.98 | 14 L/kg |  | CC[C@H](C)N1C(=O)C(C)(C)c2cnc(Nc3ccc(CN4CC(C)OC(C)C4)cc3)nc21 (stereo partly specified) |  | 
14 | 84 mL/min/kg | 3.09 |  | 6.92 | CC[C@H](C)N1C(=O)C(C)(C)c2cnc(Nc3ccc(S(C)(=O)=O)cc3)nc21 | 26 min | half-life [13]: 80 min; clearance [14]: 3 mL/min/kg
15 |  | 2.21 |  | 7.10 | CC[C@H](C)N1C(=O)C(C)(C)c2cnc(Nc3ccc(-c4nnc(C)[nH]4)cc3)nc21 | 50 min | half-life [13]: 80 min; clearance [14]: 10 mL/min/kg
16 |  | 2.56 | 5.2 L/kg |  | CC[C@H](C)N1C(=O)C(C)(C)c2cnc(Nc3cccnc3)nc21 |  | 
